# Tested on: NOMO1
# Experiment: cell viability relative to DMSO control; higher = less cytotoxic
# Conditions: 48 h
# Method in brief: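 NOMO1 or SEM (500 cells/well) or P12-Ichikawa (1000 cells/well) leukemia cells were adapted for at least four passages in each medium. They were seeded in 1536-well plates (5 μl) and pin-dosed with library compounds in DMSO over an 11-point threefold series, 47 μM to 0.79 nM. CellTiter-Glo One luminescence was read after 48 h at 37°C. Viability is the per-plate percentage relative to DMSO wells, with cell-free wells as background.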
# [1] = HPLM + 10% dialyzed FBS, 0.000781 µM
# [2] = HPLM + 10% dialyzed FBS, 0.00234 µM
# [3] = HPLM + 10% dialyzed FBS, 0.00702 µM
# [4] = HPLM + 10% dialyzed FBS, 0.0211 µM
# [5] = HPLM + 10% dialyzed FBS, 0.0632 µM
# [6] = HPLM + 10% dialyzed FBS, 0.19 µM
# [7] = HPLM + 10% dialyzed FBS, 0.569 µM
# [8] = HPLM + 10% dialyzed FBS, 1.71 µM
# [9] = HPLM + 10% dialyzed FBS, 5.12 µM
# [10] = HPLM + 10% dialyzed FBS, 15.4 µM
# [11] = HPLM + 10% dialyzed FBS, 46.1 µM
# [12] = RPMI 5 mM glucose + 10% FBS, 0.000781 µM
# [13] = RPMI 5 mM glucose + 10% FBS, 0.00234 µM
# [14] = RPMI 5 mM glucose + 10% FBS, 0.00702 µM
# [15] = RPMI 5 mM glucose + 10% FBS, 0.0211 µM
# [16] = RPMI 5 mM glucose + 10% FBS, 0.0632 µM
# [17] = RPMI 5 mM glucose + 10% FBS, 0.19 µM
# [18] = RPMI 5 mM glucose + 10% FBS, 0.569 µM
# [19] = RPMI 5 mM glucose + 10% FBS, 1.71 µM
# [20] = RPMI 5 mM glucose + 10% FBS, 5.12 µM
# [21] = RPMI 5 mM glucose + 10% FBS, 15.4 µM
# [22] = RPMI 5 mM glucose + 10% FBS, 46.1 µM
# [23] = RPMI 5 mM glucose + 10% dialyzed FBS, 0.000781 µM
# [24] = RPMI 5 mM glucose + 10% dialyzed FBS, 0.00234 µM
# [25] = RPMI 5 mM glucose + 10% dialyzed FBS, 0.00702 µM
# [26] = RPMI 5 mM glucose + 10% dialyzed FBS, 0.0211 µM
# [27] = RPMI 5 mM glucose + 10% dialyzed FBS, 0.0632 µM
# [28] = RPMI 5 mM glucose + 10% dialyzed FBS, 0.19 µM
# [29] = RPMI 5 mM glucose + 10% dialyzed FBS, 0.569 µM
# [30] = RPMI 5 mM glucose + 10% dialyzed FBS, 1.71 µM
# [31] = RPMI 5 mM glucose + 10% dialyzed FBS, 5.12 µM
# [32] = RPMI 5 mM glucose + 10% dialyzed FBS, 15.4 µM
# [33] = RPMI 5 mM glucose + 10% dialyzed FBS, 46.1 µM
SMILES,cell viability [1],cell viability [2],cell viability [3],cell viability [4],cell viability [5],cell viability [6],cell viability [7],cell viability [8],cell viability [9],cell viability [10],cell viability [11],cell viability [12],cell viability [13],cell viability [14],cell viability [15],cell viability [16],cell viability [17],cell viability [18],cell viability [19],cell viability [20],cell viability [21],cell viability [22],cell viability [23],cell viability [24],cell viability [25],cell viability [26],cell viability [27],cell viability [28],cell viability [29],cell viability [30],cell viability [31],cell viability [32],cell viability [33]
CC[C@]1(O)C[C@H]2CN(CCC3=C([NH]C4=C3C=CC=C4)[C@@](C2)(C(=O)OC)C5=CC6=C(C=C5OC)N(C=O)[C@H]7[C@](O)([C@H](OC(C)=O)[C@]8(CC)\C=C/C[N@@]9CC[C@]67[C@H]89)C(=O)OC)C1,119%,117%,127%,110%,35.3%,34.7%,43.2%,47%,47.1%,50.9%,41.6%,120%,118%,127%,116%,38.9%,24.4%,23%,30.7%,28.6%,30.4%,25.8%,,,,,,,,,,,
Cc1ccc(-n2nc(C(C)(C)C)cc2NC(=O)Nc2ccc(OCCN3CCOCC3)c3ccccc23)cc1,104%,103%,119%,123%,114%,104%,111%,115%,120%,114%,96%,102%,101%,113%,103%,104%,97.1%,107%,106%,95.8%,95.4%,98.1%,88.2%,105%,111%,106%,106%,108%,118%,120%,99.9%,107%,96.2%
CO/N=C(/C(=O)N[C@@H]1C(=O)N2C(C(=O)O)=C(Cn3ccc(=N)n3CCO)CS[C@H]12)c1csc(N)n1,104%,115%,131%,136%,130%,116%,120%,130%,137%,133%,166%,,,,,,,,,,,,112%,117%,129%,133%,138%,140%,130%,123%,153%,138%,134%
C[N]1C=NC=C1[C@@](N)(C2=CC=C(Cl)C=C2)C3=CC=C4N(C)C(=O)\C=C(\C5=CC=CC(=C5)Cl)C4=C3,108%,98.5%,112%,129%,91.5%,95.4%,84.9%,83.4%,76.2%,73.5%,47.2%,100%,95.6%,95.5%,93.2%,102%,94.2%,90.3%,84.8%,85.4%,82.6%,52.8%,112%,111%,121%,106%,110%,97.3%,97.1%,87.7%,80.9%,67.4%,41.7%
NC(=O)N1c2ccccc2CC(=O)c2ccccc21,115%,124%,121%,126%,123%,136%,128%,137%,126%,143%,163%,,,,,,,,,,,,,,,,,,,,,,
FC(F)(F)c1ccc(Nc2nc3cc(Oc4ccnc(-c5ncc(C(F)(F)F)[nH]5)c4)ccc3[nH]2)cc1,,,,,,,,,,,,,,,,,,,,,,,109%,124%,136%,133%,136%,132%,131%,145%,130%,148%,89.3%
O=C(NC1CCNCC1)c1n[nH]cc1NC(=O)c1c(Cl)cccc1Cl,114%,110%,123%,128%,126%,127%,112%,23.5%,7.29%,5.85%,3.89%,112%,110%,110%,104%,112%,115%,111%,33.9%,9.78%,7.73%,3.45%,116%,116%,115%,113%,117%,107%,98.1%,35.8%,7.61%,7.43%,3.85%

# Reference: the supplement of paper PMC11451515
